Five compounds from patent US10526309B2, “Pan-TAM inhibitors and Mer/Axl dual inhibitors” (The University of North Carolina at Chapel Hill, priority 2015, dated 2020) can be followed below.

Like-named read-outs stand apart in the source and are kept apart here.

Holding throughout (format): biochemical
For one assay, the target named is T1, Mer (Homo sapiens, UniProt Q12866).
T1 sequence (Q12866 21-999): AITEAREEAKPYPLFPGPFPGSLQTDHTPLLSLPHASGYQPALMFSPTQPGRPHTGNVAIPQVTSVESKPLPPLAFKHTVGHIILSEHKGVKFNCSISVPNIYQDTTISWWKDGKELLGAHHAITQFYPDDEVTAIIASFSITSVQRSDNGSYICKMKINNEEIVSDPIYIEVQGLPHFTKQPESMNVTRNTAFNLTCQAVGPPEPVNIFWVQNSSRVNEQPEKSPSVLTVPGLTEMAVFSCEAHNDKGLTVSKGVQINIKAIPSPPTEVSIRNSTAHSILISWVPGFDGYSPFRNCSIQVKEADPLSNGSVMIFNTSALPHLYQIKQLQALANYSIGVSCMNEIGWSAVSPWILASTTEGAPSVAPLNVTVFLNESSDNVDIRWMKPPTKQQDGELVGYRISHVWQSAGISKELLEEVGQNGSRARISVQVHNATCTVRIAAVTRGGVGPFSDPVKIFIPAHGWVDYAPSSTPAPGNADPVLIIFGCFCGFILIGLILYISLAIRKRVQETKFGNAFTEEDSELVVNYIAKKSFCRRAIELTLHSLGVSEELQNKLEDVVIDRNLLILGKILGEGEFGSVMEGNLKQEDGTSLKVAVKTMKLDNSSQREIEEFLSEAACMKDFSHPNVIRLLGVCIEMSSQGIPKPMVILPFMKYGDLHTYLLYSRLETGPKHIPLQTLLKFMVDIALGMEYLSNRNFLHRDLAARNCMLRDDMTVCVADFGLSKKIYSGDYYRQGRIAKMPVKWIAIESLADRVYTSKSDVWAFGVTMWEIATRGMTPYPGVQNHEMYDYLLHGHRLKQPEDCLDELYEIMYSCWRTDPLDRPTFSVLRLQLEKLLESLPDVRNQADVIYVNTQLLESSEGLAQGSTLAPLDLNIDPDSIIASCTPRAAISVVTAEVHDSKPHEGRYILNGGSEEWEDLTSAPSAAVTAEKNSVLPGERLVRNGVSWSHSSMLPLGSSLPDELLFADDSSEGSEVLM
The experiment in a line: Mer kinase inhibition IC50.

For another assay, the target named is T2, Axl (Homo sapiens, UniProt P30530).
T2 sequence (P30530 26-894): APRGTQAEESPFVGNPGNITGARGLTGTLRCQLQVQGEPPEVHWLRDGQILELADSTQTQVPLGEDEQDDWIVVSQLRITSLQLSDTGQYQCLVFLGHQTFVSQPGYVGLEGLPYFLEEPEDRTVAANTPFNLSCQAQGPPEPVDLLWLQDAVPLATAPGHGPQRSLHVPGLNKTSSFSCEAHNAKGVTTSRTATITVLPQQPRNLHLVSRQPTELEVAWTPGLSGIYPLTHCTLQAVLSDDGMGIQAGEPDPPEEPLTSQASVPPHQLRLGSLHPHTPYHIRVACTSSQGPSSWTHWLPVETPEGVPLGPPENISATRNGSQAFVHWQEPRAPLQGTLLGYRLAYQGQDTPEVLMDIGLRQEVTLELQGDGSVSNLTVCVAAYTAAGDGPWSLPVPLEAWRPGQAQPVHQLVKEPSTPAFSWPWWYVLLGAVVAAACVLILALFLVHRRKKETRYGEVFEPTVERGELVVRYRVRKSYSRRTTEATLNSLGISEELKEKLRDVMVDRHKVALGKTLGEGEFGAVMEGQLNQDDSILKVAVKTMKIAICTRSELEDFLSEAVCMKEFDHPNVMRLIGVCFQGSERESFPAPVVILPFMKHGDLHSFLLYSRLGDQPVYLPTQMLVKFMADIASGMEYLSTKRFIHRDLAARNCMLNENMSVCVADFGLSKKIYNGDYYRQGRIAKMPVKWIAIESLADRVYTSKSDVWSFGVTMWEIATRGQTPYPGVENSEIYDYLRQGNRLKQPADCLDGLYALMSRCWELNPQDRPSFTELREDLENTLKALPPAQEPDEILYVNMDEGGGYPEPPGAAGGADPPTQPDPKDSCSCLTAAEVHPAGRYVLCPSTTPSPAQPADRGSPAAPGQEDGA
The assay is described as follows: Axl kinase inhibition IC50.

The target of a further assay is T3, Tyro3 (Homo sapiens, UniProt Q06418).
T3 sequence (Q06418 41-890): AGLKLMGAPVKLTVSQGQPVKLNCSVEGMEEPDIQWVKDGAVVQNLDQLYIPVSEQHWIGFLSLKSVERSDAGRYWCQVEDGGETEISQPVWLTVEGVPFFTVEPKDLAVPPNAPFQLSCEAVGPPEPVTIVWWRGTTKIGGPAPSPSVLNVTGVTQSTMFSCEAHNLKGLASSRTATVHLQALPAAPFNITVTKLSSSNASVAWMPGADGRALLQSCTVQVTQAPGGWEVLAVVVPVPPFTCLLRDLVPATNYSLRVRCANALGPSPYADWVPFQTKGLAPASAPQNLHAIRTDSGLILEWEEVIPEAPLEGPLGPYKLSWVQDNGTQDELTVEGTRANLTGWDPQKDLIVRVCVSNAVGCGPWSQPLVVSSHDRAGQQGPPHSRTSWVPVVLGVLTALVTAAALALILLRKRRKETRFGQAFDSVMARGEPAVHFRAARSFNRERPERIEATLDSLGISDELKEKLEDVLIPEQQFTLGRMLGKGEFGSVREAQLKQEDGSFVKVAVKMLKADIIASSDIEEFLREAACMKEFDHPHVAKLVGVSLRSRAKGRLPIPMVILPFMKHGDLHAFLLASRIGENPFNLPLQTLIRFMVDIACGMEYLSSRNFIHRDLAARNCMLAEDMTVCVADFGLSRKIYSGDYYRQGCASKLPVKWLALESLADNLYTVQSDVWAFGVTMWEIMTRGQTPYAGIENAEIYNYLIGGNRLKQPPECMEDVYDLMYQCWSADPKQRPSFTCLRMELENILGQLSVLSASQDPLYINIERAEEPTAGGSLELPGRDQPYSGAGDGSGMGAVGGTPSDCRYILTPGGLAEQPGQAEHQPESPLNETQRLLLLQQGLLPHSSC
The experiment in a line: Tyro3 kinase inhibition IC50.

Another assay has as its target T4, FLT3 (Homo sapiens, UniProt P36888).
T4 sequence (P36888 27-993): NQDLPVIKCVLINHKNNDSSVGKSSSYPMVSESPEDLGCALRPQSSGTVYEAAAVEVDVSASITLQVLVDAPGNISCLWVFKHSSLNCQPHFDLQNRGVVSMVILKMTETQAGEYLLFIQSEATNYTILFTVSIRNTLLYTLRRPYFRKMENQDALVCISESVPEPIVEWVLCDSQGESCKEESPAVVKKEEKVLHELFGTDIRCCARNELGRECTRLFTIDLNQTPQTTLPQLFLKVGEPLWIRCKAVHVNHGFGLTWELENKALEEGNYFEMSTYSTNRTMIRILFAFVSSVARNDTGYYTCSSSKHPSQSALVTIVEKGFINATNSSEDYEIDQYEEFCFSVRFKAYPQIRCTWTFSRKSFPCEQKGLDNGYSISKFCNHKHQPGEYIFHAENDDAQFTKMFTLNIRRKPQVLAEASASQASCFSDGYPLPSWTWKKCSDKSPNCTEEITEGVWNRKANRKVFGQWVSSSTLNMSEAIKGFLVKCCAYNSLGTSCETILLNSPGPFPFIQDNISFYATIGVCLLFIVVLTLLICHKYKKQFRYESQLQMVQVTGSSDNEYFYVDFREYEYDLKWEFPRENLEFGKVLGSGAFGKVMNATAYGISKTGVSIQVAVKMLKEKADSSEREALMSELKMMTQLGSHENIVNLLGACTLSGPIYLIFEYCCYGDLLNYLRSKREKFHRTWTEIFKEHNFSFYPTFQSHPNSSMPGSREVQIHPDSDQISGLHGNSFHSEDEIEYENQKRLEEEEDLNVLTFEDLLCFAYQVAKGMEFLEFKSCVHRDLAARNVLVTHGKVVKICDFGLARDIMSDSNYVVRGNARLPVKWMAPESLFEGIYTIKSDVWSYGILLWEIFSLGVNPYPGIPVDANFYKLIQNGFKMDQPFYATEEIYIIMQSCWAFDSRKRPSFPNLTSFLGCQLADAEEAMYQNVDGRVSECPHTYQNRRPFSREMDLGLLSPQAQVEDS
The experiment in a line: FLT3 kinase inhibition IC50. The conditions noted are these: Example 6.

Regarding `CCCCN(C)c1ncc2c(-c3ccc(F)cc3)nn(C[C@H]3CC[C@H](N)CC3)c2n1` [UNC1653, reference compound], the half-inhibitory concentration (IC50) worked out at 550 nM on Mer (Example 6, read-out: MerTK IC50); 7 µM against Axl (Example 6); 15000 nM on Tyro3 (Example 6, read-out: Tyro IC50); 220 nM against FLT3.
With `CN1CCC(c2ccc(Nc3ncc(-c4ccccn4)c(N[C@H]4CC[C@H](C)CC4)n3)cc2)CC1` [UNC5133A], the IC50 was 100 to 1000 nM on Mer (Table 2, read-out: Mer IC50); 1 to 30 µM at Axl (Table 2); 100 to 1000 nM on Tyro3 (Table 2, read-out: Tyro3 IC50).
Regarding `CN1CCC(c2ccc(Nc3ncc(-c4ccccn4)c(NC4CCOCC4)n3)cc2)CC1` [UNC5134A], the IC50 at Mer (Table 2, read-out: Mer IC50) is 100 to 1000 nM; against Axl (Table 2) it was 1 to 30 µM; at Tyro3 (Table 2, read-out: Tyro3 IC50), 100 to 1000 nM.
Consider `CC(C)Nc1nc(Nc2ccc(C3CCN(C)CC3)cc2)ncc1-c1ccccn1` [UNC5135A], for which the IC50 on Mer (Table 2, read-out: Mer IC50) was in the range of 10 to 100 nM; on Axl (Table 2), 0.1 to 1 µM; on Tyro3 (Table 2, read-out: Tyro3 IC50), 100 to 1000 nM.
On to `CNc1nc(Nc2ccc(C3CCN(C)CC3)cc2)ncc1-c1ccccn1` [UNC5136A], for which the IC50 was 1000 to 30000 nM at Mer (Table 2, read-out: Mer IC50); 1 to 30 µM at Axl (Table 2); 1000 to 30000 nM at Tyro3 (Table 2, read-out: Tyro3 IC50).
